Data as given in patent US20050181021A1, “Vitamin E phosphate/phosphatidycholine liposomes to protect from or ameliorate cell damage” (priority 1992, published 2005).
Each block holds one compound with its values, some of them ahead of it.

How the values were obtained:
male albino mice = assay: Allyl alcohol-induced liver injury in mice (SGPT); type: in vivo; conditions: allyl alcohol alone, 50 mg/kg single intraperitoneal dose, 4 hours
Procedure: Influence of vitamin E phosphate/phosphatidylcholine liposomes (see example 1) on Allyl alcohol-induced liver injury was evaluated in male albino mice.

Liver cells [1] = assay: Phosphatidylcholine formation in liver cells dysfunctional due to ethanol exposure; type: cell-based; conditions: cells exposed to ethanol
Procedure: Liver cells which had become dysfunctional due to exposure to ethanol were incubated 24 hours with vitamin E phosphate/phosphatidylcholine liposomes. The pmoles of phosphatidylcholine formed per minute/mg protein was then measured with the following results: […]

cultured liver cells = assay: Reversal of ethanol damage in cultured liver cells (phosphatidylcholine biosynthesis); type: cell-based; conditions: 96 h
Procedure: The use of vitamin E phosphate/phosphatidylcholine to effect reversal of damage from ethanol on liver cells was then studied. The cultured liver cells were incubated with 25 mM or 50 mM ethanol for 96 hours, at which time there is significant reduction in liver cell function (phosphatidylcholine biosynthesis). The effect of adding vitamin E phosphate/phosphatdylcholine after 72 hours was studied, and 24 hours later (96 hours after initial exposure to ethanol) values were obtained.

[2] = Precipitation in the presence of divalent metal salts; type: physicochemical
From the text: Liposomes were made using salts of the vitamin E phosphate and phosphatidylcholine. These salts were protected by liposomes to avoid precipitation in the presence of 2^+ metal ions.

[3] = system: isolated liver cells (1000×g cell fraction); type: cell-based; conditions: phosphatidylcholine 100 μM, vitamin E phosphate 50 μm; for LCLP % control + SEM: in presence of 1 mM iron
Liver cells [4] = assay: Incorporation of labeled choline into phosphatidylcholine (PC biosynthesis) by liver cells with iron; type: cell-based
From the text: The study of effects on liver cells was also considered based on evaluation of effect on increase in the incorporation of labeled choline into phosphatidylcholine (phosphatidylcholine biosynthesis) by liver cells. Vitamin E phosphate/phosphatidylcholine produced greater beneficial effects than either vitamin E phosphate or phosphatidylcholine. [table]

[5] = in presence of 1 mM iron, phosphatidylcholine 100 μM, vitamin E phosphate 50 μm

Compound: C=CCO [Allyl alcohol]
SGPT % of control ± SEM (male albino mice): 330 ± 15 % of control

pmoles of phosphatidylcholine formed per minute/mg protein (Liver cells [1]): 25 pmoles per minute/mg protein
pmoles of phosphatidylcholine formed per minute/mg protein (Liver cells [1]; then incubated 24 hours in water): 27 pmoles per minute/mg protein
Compound: CCO [ETOH, ethanol]
phosphatidylcholine biosynthesis % control ± SEM (cultured liver cells; 25 mM ethanol alone): 38 ± 2 % control
phosphatidylcholine biosynthesis % control ± SEM (cultured liver cells; 50 mM ethanol alone): 22 ± 1 % control

behaviour in the presence of divalent metal salts [2]: precipitated
Compound: Cc1c(C)c2c(c(C)c1OP(=O)(O)O)CCC(C)(CCCC(C)CCCC(C)CCCC(C)C)O2 (stereo not shown) [VEP, vitamin E phosphate]
LCLP % control + SEM [3]: 167 ± 3 % control
iron-dependent lipid peroxidation in isolated liver cells (result in words) [3]: significantly reduced
PC biosynthesis % control + SEM (Liver cells [4]; [5]): 145 ± 4 % control

Compound: [Fe] [iron]
PC biosynthesis % control + SEM (Liver cells [4]; 1 mM iron alone): 254 ± 9 % control

Compound: phosphatidylcholine [PC]
LCLP % control + SEM [3]: 281 ± 4 % control
iron-dependent lipid peroxidation in isolated liver cells (result in words) [3]: significantly reduced
PC biosynthesis % control + SEM (Liver cells [4]; [5]): 167 ± 4 % control
